Source: ChEMBL document CHEMBL5523718, “Design, synthesis, molecular modeling, in vitro and in vivo biological evaluation of potent anthranilamide derivatives as dual P-glycoprotein and CYP3A4 inhibitors” (Eur J Med Chem, 2024)

Legend:
Cytochrome P450 2D6 = Cytochrome P450 2D6 (Homo sapiens, UniProt P10635); assay: Inhibition of CYP2D6 (unknown origin) using Bufuralol as substrate; assay type: ADME
[1] = molecular target: ATP-dependent translocase ABCB1 (Homo sapiens, UniProt P08183); assay: Inhibition of P-gp in human MES-SA/Dx5 cells; assay type: cell-based
Cytochrome P450 3A4 [2] = molecular target: T1, Cytochrome P450 3A4 (Homo sapiens, UniProt P08684); assay: Inhibition of CYP3A4 in human liver using luciferin-IPA as substrate microsome preincubated with compound for 10 mins followed by NADPH addition and measured after 5 mins; assay type: ADME, microsomes
Cytochrome P450 3A4 [3] = molecular target: T1, Cytochrome P450 3A4; assay: Inhibition of CYP3A4 in human Hepatocyte using Luciferin-IPA as substrate; assay type: ADME, cell-based
MES-SA/Dx5 = assay: Cytotoxicity against human MES-SA/Dx5 cells at 1.28 uM incubated for 3 days by MTT assay relative to control; assay type: functional; details: time 3 day
[4] = Apparent permeability of compound across apical to basolateral side in human Caco-2 cells; assay type: ADME, cell-based
[5] = Apparent permeability across apical to basolateral side in human Caco-2 cells assessed as drug recovery; assay type: ADME, cell-based; details: read-out: Drug recovery
[6] = Apparent permeability across basolateral to apical side in human Caco-2 cells assessed as drug recovery; assay type: ADME, cell-based; details: read-out: Drug recovery
P-gp (ABCB1) [7] = molecular target: T2, P-gp (ABCB1) (Homo sapiens, UniProt P08183); assay: Inhibition of P-gp in human Caco-2 cells at 1 uM in presence of paclitaxel relative to control; assay type: cell-based; details: Caco-2, probe paclitaxel
P-gp (ABCB1) [8] = molecular target: T2, P-gp (ABCB1); assay: Inhibition of P-gp in human Caco-2 cells at 0.1 uM in presence of paclitaxel relative to control; assay type: cell-based; details: Caco-2, probe paclitaxel
[9] = Inhibition of CYP3A4 in mouse liver using luciferin-IPA as substrate microsome preincubated with compound for 10 mins followed by NADPH addition and measured after 5 mins; assay type: ADME, microsomes
[10] = Inhibition of CYP3A4 in monkey liver using luciferin-IPA as substrate microsome preincubated with compound for 10 mins followed by NADPH addition and measured after 5 mins; assay type: ADME, microsomes, Macaca mulatta
[11] = Metabolic stability in human liver microsome assessed as half life; assay type: ADME; details: liver microsomes
[12] = Metabolic stability in rat liver microsome assessed as half life; assay type: ADME; details: liver microsomes
[13] = Metabolic stability in monkey liver microsome assessed as half life; assay type: ADME, Macaca mulatta; details: rhesus monkey, liver microsomes
[14] = Metabolic stability in rat liver microsome assessed as intrinsic clearance; assay type: ADME; details: microsomes
[15] = Metabolic stability in monkey liver microsome assessed as intrinsic clearance; assay type: ADME, Macaca mulatta; details: rhesus monkey, microsomes
[16] = molecular target: T3, Broad substrate specificity ATP-binding cassette transporter ABCG2 (Homo sapiens, UniProt Q9UNQ0); assay: Inhibition of BCRP (unknown origin) ATPase activity
T3 sequence (Q9UNQ0 whole entry): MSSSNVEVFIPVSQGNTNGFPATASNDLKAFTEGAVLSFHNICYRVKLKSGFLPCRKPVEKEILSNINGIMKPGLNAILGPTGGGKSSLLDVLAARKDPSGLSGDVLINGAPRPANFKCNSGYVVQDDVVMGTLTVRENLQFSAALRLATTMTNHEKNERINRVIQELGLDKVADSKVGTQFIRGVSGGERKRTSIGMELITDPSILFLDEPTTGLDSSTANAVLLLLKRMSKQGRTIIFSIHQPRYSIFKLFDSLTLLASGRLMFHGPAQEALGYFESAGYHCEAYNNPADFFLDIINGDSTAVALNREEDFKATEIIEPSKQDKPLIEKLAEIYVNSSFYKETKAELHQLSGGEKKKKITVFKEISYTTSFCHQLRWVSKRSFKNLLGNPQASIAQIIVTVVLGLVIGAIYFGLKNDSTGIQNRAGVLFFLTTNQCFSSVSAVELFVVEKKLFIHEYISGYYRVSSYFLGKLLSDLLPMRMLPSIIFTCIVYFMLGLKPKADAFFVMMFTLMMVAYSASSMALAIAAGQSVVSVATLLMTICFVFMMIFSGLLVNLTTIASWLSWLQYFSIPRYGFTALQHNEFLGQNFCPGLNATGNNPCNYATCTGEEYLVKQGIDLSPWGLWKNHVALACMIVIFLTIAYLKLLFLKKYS

[17] = Inhibition of MRP1 (unknown origin) ATPase activity; parameters: species or system Homo sapiens
[18] = molecular target: ATP-binding cassette sub-family C member 2 (Homo sapiens, UniProt Q92887); assay: Inhibition of MRP2 (unknown origin) ATPase activity
Cytochrome P450 1A2 = molecular target: T4, Cytochrome P450 1A2 (Homo sapiens, UniProt P05177); assay: Inhibition of CYP1A2 (unknown origin) using Phenacetin as substrate; assay type: ADME
T4 sequence (P05177 whole entry): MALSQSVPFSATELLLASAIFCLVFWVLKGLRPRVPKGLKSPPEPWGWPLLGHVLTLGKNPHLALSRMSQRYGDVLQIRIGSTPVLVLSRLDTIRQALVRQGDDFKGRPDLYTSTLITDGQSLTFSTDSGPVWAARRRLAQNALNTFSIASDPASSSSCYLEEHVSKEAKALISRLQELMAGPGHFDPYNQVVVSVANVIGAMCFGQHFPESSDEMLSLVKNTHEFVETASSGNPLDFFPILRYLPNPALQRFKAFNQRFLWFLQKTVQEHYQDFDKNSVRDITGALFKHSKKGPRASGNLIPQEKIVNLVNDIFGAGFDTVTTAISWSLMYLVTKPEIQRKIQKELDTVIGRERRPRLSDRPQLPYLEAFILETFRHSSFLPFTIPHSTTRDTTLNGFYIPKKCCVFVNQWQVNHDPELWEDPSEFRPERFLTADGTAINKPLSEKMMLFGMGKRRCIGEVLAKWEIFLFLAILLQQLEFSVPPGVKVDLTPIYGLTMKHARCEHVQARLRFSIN

Cytochrome P450 2B6 = molecular target: T5, Cytochrome P450 2B6 (Homo sapiens, UniProt P20813); assay: Inhibition of CYP2B6 (unknown origin) using Bupropion as substrate; assay type: ADME
T5 sequence (P20813 whole entry): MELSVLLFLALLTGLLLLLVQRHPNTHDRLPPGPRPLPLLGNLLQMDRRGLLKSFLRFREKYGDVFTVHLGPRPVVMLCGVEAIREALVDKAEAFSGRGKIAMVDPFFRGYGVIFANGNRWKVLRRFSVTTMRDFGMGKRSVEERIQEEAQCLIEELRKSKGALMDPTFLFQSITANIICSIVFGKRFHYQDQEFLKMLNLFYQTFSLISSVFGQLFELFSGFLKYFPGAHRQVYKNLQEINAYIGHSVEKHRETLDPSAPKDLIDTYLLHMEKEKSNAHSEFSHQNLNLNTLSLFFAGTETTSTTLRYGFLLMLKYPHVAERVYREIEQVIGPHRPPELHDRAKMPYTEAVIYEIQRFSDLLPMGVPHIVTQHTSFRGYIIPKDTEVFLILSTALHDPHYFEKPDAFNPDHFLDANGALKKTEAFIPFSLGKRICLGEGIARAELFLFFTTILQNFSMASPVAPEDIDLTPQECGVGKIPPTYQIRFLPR

Cytochrome P450 2C9 = Cytochrome P450 2C9 (Homo sapiens, UniProt P11712); assay: Inhibition of CYP2C9 (unknown origin) using Diclofenac as substrate; assay type: ADME
Cytochrome P450 2C19 = Cytochrome P450 2C19 (Homo sapiens, UniProt P33261); assay: Inhibition of CYP2C19 (unknown origin) using S-mephenytoin as substrate; assay type: ADME
Cytochrome P450 3A4 [19] = molecular target: T1, Cytochrome P450 3A4; assay: Inhibition of CYP3A4 (unknown origin) using Midazolam as substrate; assay type: ADME

T1 sequence (P08684 whole entry): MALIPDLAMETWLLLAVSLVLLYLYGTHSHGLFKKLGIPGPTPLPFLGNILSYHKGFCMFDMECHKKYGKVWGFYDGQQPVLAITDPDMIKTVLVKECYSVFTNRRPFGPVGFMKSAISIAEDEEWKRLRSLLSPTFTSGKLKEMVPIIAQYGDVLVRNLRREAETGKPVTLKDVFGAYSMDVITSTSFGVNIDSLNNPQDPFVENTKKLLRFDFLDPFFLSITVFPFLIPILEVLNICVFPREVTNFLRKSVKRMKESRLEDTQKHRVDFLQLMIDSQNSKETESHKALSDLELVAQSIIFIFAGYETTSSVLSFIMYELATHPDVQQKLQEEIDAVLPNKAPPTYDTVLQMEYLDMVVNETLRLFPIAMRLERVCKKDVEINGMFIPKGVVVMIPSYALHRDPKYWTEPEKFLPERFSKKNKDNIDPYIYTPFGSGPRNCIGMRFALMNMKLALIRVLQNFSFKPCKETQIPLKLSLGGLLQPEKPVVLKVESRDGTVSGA
T2 sequence (P08183 whole entry): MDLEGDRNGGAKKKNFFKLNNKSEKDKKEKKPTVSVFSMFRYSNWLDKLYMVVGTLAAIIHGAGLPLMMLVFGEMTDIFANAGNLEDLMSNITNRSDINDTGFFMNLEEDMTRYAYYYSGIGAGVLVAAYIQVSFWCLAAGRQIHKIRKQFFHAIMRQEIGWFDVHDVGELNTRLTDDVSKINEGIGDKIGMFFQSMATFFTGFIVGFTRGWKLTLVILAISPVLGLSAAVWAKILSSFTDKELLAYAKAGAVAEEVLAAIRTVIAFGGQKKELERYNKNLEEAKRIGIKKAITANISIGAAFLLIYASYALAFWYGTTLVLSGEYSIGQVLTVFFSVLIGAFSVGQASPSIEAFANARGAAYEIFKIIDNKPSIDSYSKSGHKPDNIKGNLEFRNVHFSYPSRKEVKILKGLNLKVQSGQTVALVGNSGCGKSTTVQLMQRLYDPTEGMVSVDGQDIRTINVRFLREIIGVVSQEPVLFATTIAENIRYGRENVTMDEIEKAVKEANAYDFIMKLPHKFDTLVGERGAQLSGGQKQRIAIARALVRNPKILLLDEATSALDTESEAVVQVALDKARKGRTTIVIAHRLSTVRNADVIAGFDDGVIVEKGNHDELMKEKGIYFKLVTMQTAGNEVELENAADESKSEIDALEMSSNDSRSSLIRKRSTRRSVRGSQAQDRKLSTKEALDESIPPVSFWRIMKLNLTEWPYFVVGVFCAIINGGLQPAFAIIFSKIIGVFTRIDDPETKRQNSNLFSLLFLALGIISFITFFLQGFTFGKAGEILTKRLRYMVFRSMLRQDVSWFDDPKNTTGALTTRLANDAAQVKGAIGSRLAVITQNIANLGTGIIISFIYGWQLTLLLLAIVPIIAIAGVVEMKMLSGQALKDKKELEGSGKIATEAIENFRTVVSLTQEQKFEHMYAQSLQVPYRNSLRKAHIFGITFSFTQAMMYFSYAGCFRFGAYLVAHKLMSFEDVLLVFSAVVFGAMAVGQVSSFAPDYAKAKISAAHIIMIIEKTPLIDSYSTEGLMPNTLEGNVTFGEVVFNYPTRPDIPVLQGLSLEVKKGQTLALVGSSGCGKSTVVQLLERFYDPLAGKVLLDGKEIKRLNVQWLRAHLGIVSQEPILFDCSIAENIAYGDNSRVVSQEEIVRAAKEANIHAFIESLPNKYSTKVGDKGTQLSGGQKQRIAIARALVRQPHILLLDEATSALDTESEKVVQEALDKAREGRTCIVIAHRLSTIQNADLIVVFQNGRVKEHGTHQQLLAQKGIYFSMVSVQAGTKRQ
Chain of ATP-binding cassette sub-family C member 2 (Q92887 whole entry): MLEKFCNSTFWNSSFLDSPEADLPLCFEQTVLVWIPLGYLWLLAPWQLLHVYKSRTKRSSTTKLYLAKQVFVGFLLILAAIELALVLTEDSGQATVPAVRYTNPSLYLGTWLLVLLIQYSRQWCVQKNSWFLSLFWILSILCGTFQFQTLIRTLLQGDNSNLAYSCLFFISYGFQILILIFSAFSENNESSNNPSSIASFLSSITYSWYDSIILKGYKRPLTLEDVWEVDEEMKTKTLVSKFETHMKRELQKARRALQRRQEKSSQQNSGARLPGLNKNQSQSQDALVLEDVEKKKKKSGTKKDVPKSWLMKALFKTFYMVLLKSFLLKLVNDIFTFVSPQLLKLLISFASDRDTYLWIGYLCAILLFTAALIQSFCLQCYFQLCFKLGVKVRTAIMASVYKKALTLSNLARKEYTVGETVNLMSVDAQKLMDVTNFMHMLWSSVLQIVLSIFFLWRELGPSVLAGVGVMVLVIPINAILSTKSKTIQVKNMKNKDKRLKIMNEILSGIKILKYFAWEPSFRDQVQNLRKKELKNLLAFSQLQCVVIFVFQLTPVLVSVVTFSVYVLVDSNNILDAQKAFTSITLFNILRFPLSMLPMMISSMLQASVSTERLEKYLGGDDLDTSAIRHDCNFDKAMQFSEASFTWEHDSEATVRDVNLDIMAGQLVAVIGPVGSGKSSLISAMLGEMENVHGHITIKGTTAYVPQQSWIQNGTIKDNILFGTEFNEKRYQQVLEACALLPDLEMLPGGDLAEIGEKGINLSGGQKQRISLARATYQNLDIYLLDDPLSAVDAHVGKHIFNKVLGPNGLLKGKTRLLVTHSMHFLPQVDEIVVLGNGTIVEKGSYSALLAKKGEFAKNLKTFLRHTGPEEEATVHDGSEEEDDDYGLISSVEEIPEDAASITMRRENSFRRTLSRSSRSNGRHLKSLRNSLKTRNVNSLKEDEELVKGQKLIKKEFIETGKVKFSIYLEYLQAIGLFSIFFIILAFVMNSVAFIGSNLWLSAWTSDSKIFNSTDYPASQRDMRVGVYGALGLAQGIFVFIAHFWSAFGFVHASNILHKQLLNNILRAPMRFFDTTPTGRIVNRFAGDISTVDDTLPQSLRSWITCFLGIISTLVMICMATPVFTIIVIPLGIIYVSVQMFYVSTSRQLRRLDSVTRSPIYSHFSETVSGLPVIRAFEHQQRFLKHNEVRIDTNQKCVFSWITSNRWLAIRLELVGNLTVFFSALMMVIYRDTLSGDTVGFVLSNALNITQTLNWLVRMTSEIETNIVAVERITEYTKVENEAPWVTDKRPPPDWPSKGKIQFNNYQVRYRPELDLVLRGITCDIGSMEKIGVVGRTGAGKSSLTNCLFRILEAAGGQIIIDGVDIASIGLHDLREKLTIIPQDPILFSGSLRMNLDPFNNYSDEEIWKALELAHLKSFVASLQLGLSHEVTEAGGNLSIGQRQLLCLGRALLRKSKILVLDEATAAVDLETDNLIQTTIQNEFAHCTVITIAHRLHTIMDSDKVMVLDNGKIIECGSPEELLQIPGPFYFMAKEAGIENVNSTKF
Chain of ATP-dependent translocase ABCB1 (P08183 whole entry): as the sequence (P08183 whole entry) above
Chain of Cytochrome P450 2D6 (P10635 whole entry): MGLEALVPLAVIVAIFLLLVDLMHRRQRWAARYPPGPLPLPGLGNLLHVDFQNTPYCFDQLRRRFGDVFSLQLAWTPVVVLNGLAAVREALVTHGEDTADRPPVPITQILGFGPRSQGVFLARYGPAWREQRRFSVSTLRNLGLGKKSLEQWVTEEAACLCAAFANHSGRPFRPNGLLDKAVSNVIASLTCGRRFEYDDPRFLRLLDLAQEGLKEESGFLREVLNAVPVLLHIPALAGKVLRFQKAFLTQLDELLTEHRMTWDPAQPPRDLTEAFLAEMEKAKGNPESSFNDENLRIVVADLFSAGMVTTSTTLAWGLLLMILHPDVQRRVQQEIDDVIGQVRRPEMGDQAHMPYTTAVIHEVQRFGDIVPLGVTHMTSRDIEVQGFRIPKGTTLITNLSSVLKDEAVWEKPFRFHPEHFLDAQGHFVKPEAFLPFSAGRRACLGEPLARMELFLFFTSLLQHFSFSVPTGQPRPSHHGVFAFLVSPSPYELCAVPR

COc1cc(NC(=O)c2cc(=O)c3ccccc3o2)c(C(=O)Nc2ccc(C3CCN(Cc4cccc(-n5ccnc5)c4)CC3)cc2)cc1OC
IC50 (Cytochrome P450 2D6): 69000 nM | EC50 [1]: 28 nM | IC50 (Cytochrome P450 3A4 [2]): 223 nM | IC50 (Cytochrome P450 3A4 [3]): 1470 nM | Activity (MES-SA/Dx5): 0% | Papp A→B [4]: < 0.06 ×10⁻⁶ cm/s | recovery [5]: 82% | recovery [6]: 82% | inhibition at 1 µM (P-gp (ABCB1) [7]): 97% | inhibition at 0.1 µM (P-gp (ABCB1) [8]): 89% | IC50 [9]: 89 nM | IC50 [10]: 140 nM | half-life [11]: 4.4 min | half-life [12]: 15 min | half-life [13]: 4.9 min | CLH [14]: 95 µL/min/mg | CLH [15]: 280 µL/min/mg | IC50 [16]: > 1250 nM | IC50 [17]: > 10000 nM | IC50 [18]: > 10000 nM | IC50 (Cytochrome P450 1A2): > 100000 nM | IC50 (Cytochrome P450 2B6): 36000 nM | IC50 (Cytochrome P450 2C9): 36000 nM | IC50 (Cytochrome P450 2C19): 39000 nM | IC50 (Cytochrome P450 3A4 [19]): 140 nM
